{
  "source": "ChEMBL document CHEMBL1144282",
  "about": "“Synthesis and SAR of 5,6-diarylpyridines as human CB1 inverse agonists” (Bioorg Med Chem Lett, 2005)",
  "key": {"Cannabinoid receptor 2": {"target": "Cannabinoid receptor 2 (Homo sapiens, UniProt P34972)", "sequence (P34972 whole entry)": "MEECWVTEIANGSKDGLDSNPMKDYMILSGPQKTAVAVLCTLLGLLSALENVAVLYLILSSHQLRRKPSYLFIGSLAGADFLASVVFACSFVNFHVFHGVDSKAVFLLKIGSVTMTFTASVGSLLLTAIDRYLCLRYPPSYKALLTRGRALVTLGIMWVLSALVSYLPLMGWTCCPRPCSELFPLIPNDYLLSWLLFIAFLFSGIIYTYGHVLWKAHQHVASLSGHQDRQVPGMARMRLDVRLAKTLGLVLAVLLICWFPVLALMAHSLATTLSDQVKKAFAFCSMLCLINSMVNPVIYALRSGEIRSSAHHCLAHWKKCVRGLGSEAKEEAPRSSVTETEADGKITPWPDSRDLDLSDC", "description": "Inhibitory concentration tested against human Cannabinoid receptor 2 (hCB2)"}, "in vivo [1]": {"assay": "in vivo", "details": "rat, iv, 1 mg/kg", "description": "Volume of distribution at steady state was determined in rat after intravenous administration of 1 mg/kg compound"}, "in vivo [2]": {"assay": "in vivo", "details": "rat, po, 2 mg/kg"}, "in vivo [3]": {"assay": "in vivo", "details": "rat, iv, 1 mg/kg", "remark": "listed apart in the source"}, "in vivo [4]": {"assay": "in vivo", "details": "rat, iv, 1 mg/kg", "remark": "listed apart in the source", "description": "Half life period was determined in rat after intravenous administration of 1 mg/kg compound"}},
  "data": [
    {"compound": "CCCNC(=O)c1cc(-c2ccc(Cl)cc2)c(-c2ccc(Cl)cc2Cl)nc1OCc1ccc(F)c(F)c1", "values": [
      {"measurement": "IC50", "setting": "Cannabinoid receptor 2", "result": 815, "unit": "nM"},
      {"measurement": "Vd", "setting": "in vivo [1]", "result": 0.4, "unit": "L/kg"},
      {"measurement": "bioavailability", "setting": "in vivo [2]", "result": 12, "unit": "%"},
      {"measurement": "clearance", "setting": "in vivo [3]", "result": 5.8, "unit": "mL/min/kg"},
      {"measurement": "half-life", "setting": "in vivo [4]", "result": 2.5, "unit": "h"}
    ]}
  ]
}
